Measurements: patent publication US9273058B2 (BRISTOL-MYERS SQUIBB COMPANY, priority 2013, dated 2016)
Where two headings read alike, the source gives them in different places.

How the values were obtained:
CK1ε = CK1ε (Homo sapiens, UniProt P49674); experiment: CK1ε kinase assay (Caliper LabChip electrophoretic separation of fluoresceinated peptide substrate and product); type: biochemical; conditions: 200 pM CK1ε, 50 μM ATP, 1.5 μM peptide, 22 hours at room temperature
Outline: (§1)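 Reactions ran 22 hours at room temperature and were stopped with EDTA. Phosphorylated product and unphosphorylated substrate were then separated electrophoretically. Compounds were tested at eleven concentrations, and IC50 values came from non-linear regression.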

CK1δ = CK1δ (Homo sapiens, UniProt P48730); experiment: CK1δ kinase assay (Caliper LabChip electrophoretic separation of fluoresceinated peptide substrate and product); type: biochemical; conditions: 200 pM CK1δ, 50 μM ATP, 1.5 μM peptide, 22 hours at room temperature
Sequence of CK1δ (P48730 whole entry): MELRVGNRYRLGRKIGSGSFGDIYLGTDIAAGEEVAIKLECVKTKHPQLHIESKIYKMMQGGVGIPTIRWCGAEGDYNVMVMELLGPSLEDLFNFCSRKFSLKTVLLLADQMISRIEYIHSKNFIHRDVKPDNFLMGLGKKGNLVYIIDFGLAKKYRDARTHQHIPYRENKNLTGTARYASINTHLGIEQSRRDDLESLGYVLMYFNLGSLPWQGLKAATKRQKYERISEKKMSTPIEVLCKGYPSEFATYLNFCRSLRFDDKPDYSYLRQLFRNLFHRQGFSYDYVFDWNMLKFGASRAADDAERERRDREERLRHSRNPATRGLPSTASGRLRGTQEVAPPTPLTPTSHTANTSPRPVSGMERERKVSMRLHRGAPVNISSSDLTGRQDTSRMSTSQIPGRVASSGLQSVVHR
Outline: as §1

Sequence of CK1ε (P49674 whole entry): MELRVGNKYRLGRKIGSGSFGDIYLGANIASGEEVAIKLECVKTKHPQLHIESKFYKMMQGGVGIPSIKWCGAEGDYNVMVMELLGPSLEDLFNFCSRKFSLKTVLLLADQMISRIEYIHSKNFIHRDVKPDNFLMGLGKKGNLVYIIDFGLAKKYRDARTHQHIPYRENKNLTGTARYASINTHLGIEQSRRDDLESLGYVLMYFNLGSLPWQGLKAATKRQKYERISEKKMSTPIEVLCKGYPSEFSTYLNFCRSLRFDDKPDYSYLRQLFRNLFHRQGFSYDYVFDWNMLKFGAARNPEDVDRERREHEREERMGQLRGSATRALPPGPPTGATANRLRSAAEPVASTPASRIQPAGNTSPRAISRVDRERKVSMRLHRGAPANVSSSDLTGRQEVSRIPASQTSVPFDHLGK

| SMILES | IC50 (CK1ε; read-out: CK1ε IC50 range) [nM] | IC50 (CK1δ; read-out: CK1δ IC50 range) [nM] | IC50 (CK1ε; read-out: CK1ε) [nM] | IC50 (CK1δ; read-out: CK1δ) [nM] |
| --- | --- | --- | --- | --- |
| NC(=O)c1c(-c2ccc(F)c(Cl)c2)nn2c1CN(C(=O)NC13CCCC(CCC1)C3)CC2 [Compound A64, N^5-((1r,5r)-Bicyclo[3.3.1]nonan-1-yl)-2-(3-chloro-4-fluorophenyl)-6,7-dihydropyrazolo[1,5-a]pyrazine-3,5(4H)-dicarboxamide] | 0.01 to 10 | 0.01 to 10 | – | – |
| NC(=O)c1c(-c2ccc(F)c(Cl)c2)nn2c1CN(C(=O)NC1(c3ccc(F)cc3)CC(F)(F)C1)CC2 [Compound 308, 2-(3-Chloro-4-fluorophenyl)-N^5-(3,3-difluoro-1-(4-fluorophenyl)cyclobutyl)-6,7-dihydropyrazolo[1,5-a]pyrazine-3,5(4H)-dicarboxamide] | 0.01 to 10 | 0.01 to 10 | – | – |
| CC1CN(C(=O)NC2CC(F)(F)C2)Cc2c(C(N)=O)c(-c3cccc(Cl)c3)nn21 (single isomer, unassigned) [Compound A110, 2-(3-Chlorophenyl)-N^5-(3,3-difluorocyclobutyl)-7-methyl-6,7-dihydropyrazolo[1,5-a]pyrazine-3,5(4H)-dicarboxamide] | 0.01 to 10 | 0.01 to 10 | – | – |
| NC(=O)c1c(-c2ccc(Cl)c(Cl)c2)nn2c1CN(C(=O)NC1(c3ccc(F)cc3)CC(F)(F)C1)CC2 [Compound 310, 2-(3,4-Dichlorophenyl)-N^5-(3,3-difluoro-1-(4-fluorophenyl)cyclobutyl)-6,7-dihydropyrazolo[1,5-a] pyrazine-3,5(4H)-dicarboxamide] | 0.01 to 10 | 0.01 to 10 | – | – |
| CC(C)(NC(=O)N1CCn2nc(-c3ccc(Cl)c(Cl)c3)c(C(N)=O)c2C1)C1CCC(F)(F)CC1 [Compound 234, 2-(3,4-Dichlorophenyl)-N^5-(2-(4,4-difluorocyclohexyl)propan-2-yl)-6,7-dihydropyrazolo[1,5-a] pyrazine-3,5(4H)-dicarboxamide] | 0.01 to 10 | 0.01 to 10 | – | – |
| CC(C)(C)NC(=O)N1CCn2nc(-c3ccc(S(C)(=O)=O)cc3)c(C(N)=O)c2C1 [Compound 144, N^5-(tert-Butyl)-2-(4-(methylsulfonyl)phenyl)-6,7-dihydropyrazolo[1,5-a] pyrazine-3,5(4H)-dicarboxamide] | 100 to 2000 | 100 to 2000 | – | – |
| NC(=O)c1c(-c2cccc(F)c2)nn2c1CN(C(=O)Nc1ccc(Cl)cc1Cl)CC2 [Compound 43, N^5-(2,4-Dichlorophenyl)-2-(3-fluorophenyl)-6,7-dihydropyrazolo[1,5-a]pyrazine-3,5(4H)-dicarboxamide] | 10 to 100 | 10 to 100 | – | – |
| CC(C)NC(=O)N1CCn2nc(-c3cccc(F)c3)c(C(N)=O)c2C1 [Compound 5, 2-(3-Fluorophenyl)-N^5-isopropyl-6,7-dihydropyrazolo[1,5-a]pyrazine-3,5(4H)-dicarboxamide] | 10 to 100 | 10 to 100 | – | – |
| CS[C@H]1C[C@@H](NC(=O)N2CCn3nc(-c4ccc(Cl)c(Cl)c4)c(C(N)=O)c3C2)C1 [Compound 271, 2-(3,4-Dichlorophenyl)-N^5-((1s,3s)-3-(methylthio)cyclobutyl)-6,7-dihydropyrazolo[1,5-a] pyrazine-3,5(4H)-dicarboxamide] | 0.01 to 10 | 0.01 to 10 | – | – |
| N#CCC1(NC(=O)N2CCn3nc(-c4cccc(Cl)c4)c(C(N)=O)c3C2)CCC1 [Compound 221, 2-(3-Chlorophenyl)-N^5-(1-(cyanomethyl)cyclobutyl)-6,7-dihydropyrazolo[1,5-a] pyrazine-3,5(4H)-dicarboxamide] | 0.01 to 10 | 0.01 to 10 | – | – |
| NC(=O)c1c(-c2cccc(Cl)c2)nn2c1CN(C(=O)NC1CC3(C1)CC(F)(F)C3)CC2 [Compound 182, 2-(3-Chlorophenyl)-N^5-(6,6-difluorospiro[3.3]heptan-2-yl)-6,7-dihydropyrazolo[1,5-a] pyrazine-3,5(4H)-dicarboxamide] | 0.01 to 10 | 0.01 to 10 | – | – |
| CC(C)(C)NC(=O)N1Cc2c(C(N)=O)c(-c3ccc(F)c(Cl)c3)nn2CC1C(F)(F)F (single isomer, unassigned) [Compound 347, N^5-(tert-Butyl)-2-(3-chloro-4-fluorophenyl)-6-(trifluoromethyl)-6,7-dihydropyrazolo[1,5-a]pyrazine-3,5(4H)-dicarboxamide] | 0.01 to 10 | 10 to 100 | – | – |
| CC(C)(NC(=O)N1CCn2nc(-c3ccc(F)c(Cl)c3)c(C(N)=O)c2C1)c1ccc(C#N)cc1 [Compound 187, 2-(3-Chloro-4-fluorophenyl)-N^5-(2-(4-cyanophenyl)propan-2-yl)-6,7-dihydropyrazolo [1,5-a]pyrazine-3,5(4H)-dicarboxamide] | 0.01 to 10 | 0.01 to 10 | – | – |
| CC(C)(C)NC(=O)N1CCn2nc(-c3cc(F)cc(C(F)(F)F)c3)c(C(N)=O)c2C1 [Compound 155, N^5-(tert-Butyl)-2-(3-fluoro-5-(trifluoromethyl)phenyl)-6,7-dihydropyrazolo[1,5-a] pyrazine-3,5(4H)-dicarboxamide] | 100 to 2000 | 100 to 2000 | – | – |
| COC12CCC(NC(=O)N3CCn4nc(-c5cccc(Cl)c5)c(C(N)=O)c4C3)(CC1)C2 [Compound A82, 2-(3-Chlorophenyl)-N^5-(4-methoxybicyclo[2.2.1]heptan-1-yl)-6,7-dihydropyrazolo[1,5-a]pyrazine-3,5(4H)-dicarboxamide] | 0.01 to 10 | 0.01 to 10 | – | – |
| NC(=O)c1c(-c2ccc(F)c(Cl)c2)nn2c1CN(C(=O)NC13CCC(c4ccc(F)cc4)(CC1)CC3)CC2 [Compound A52, 2-(3-Chloro-4-fluorophenyl)-N^5-(4-(4-fluorophenyl)bicyclo[2.2.2]octan-1-yl)-6,7-dihydropyrazolo[1,5-a]pyrazine-3,5(4H)-dicarboxamide] | 0.01 to 10 | 0.01 to 10 | – | – |
| CO[C@H]1C[C@H](NC(=O)N2CCn3nc(-c4ccc(Cl)c(Cl)c4)c(C(N)=O)c3C2)C1 [Compound 204, 2-(3,4-Dichlorophenyl)-N^5-((1r,3r)-3-methoxycyclobutyl)-6,7-dihydropyrazolo[1,5-a] pyrazine-3,5(4H)-dicarboxamide] | 0.01 to 10 | 0.01 to 10 | – | – |
| NC(=O)c1c(-c2ccc(Cl)c(Cl)c2)nn2c1CN(C(=O)N[C@H]1C[C@@H](c3ccc(F)cc3)C1)CC2 [Compound 278, 2-(3,4-Dichlorophenyl)-N^5-((1s,3s)-3-(4-fluorophenyl)cyclobutyl)-6,7-dihydropyrazolo[1,5-a] pyrazine-3,5(4H)-dicarboxamide] | 0.01 to 10 | 0.01 to 10 | – | – |
| CS[C@H]1C[C@@H](NC(=O)N2CCn3nc(-c4ccc(F)c(Cl)c4)c(C(N)=O)c3C2)C1 [Compound 269, 2-(3-Chloro-4-fluorophenyl)-N^5-((1s,3s)-3-(methylthio)cyclobutyl)-6,7-dihydropyrazolo[1,5-a]pyrazine-3,5(4H)-dicarboxamide] | 0.01 to 10 | 0.01 to 10 | – | – |
| CC1(C)CC(NC(=O)N2CCn3nc(-c4cccc(Cl)c4)c(C(N)=O)c3C2)C1 [Compound 286] | 0.01 to 10 | 0.01 to 10 | – | – |
| CS[C@H]1C[C@@H](NC(=O)N2CCn3nc(-c4cccc(Cl)c4)c(C(N)=O)c3C2)C1 [Compound 270, 2-(3-Chlorophenyl)-N^5-((1s,3s)-3-(methylthio)cyclobutyl)-6,7-dihydropyrazolo[1,5-a] pyrazine-3,5(4H)-dicarboxamide] | 0.01 to 10 | 0.01 to 10 | – | – |
| CC(C)(C)NC(=O)N1CCn2nc(-c3cccc(Cl)c3Cl)c(C(N)=O)c2C1 [Compound 130, N^5-(tert-Butyl)-2-(2,3-dichlorophenyl)-6,7-dihydropyrazolo[1,5-a] pyrazine-3,5(4H)-dicarboxamide] | 10 to 100 | 10 to 100 | 89.5 | 96.4 |
| NC(=O)c1c(-c2cccc(F)c2)nn2c1CN(C(=O)Nc1ccc(F)cc1F)CC2 [Compound 30, N^5-(2,4-Difluorophenyl)-2-(3-fluorophenyl)-6,7-dihydropyrazolo[1,5-a]pyrazine-3,5(4H)-dicarboxamide] | 10 to 100 | 10 to 100 | – | – |
| Cn1nccc1NC(=O)N1CCn2nc(-c3cccc(F)c3)c(C(N)=O)c2C1 [Compound 96, 2-(3-Fluorophenyl)-N^5-(1-methyl-1H-pyrazol-5-yl)-6,7-dihydropyrazolo[1,5-a]pyrazine-3,5(4H)-dicarboxamide] | 10 to 100 | 10 to 100 | – | – |
| CC(C)(O)[C@@H]1CN(C(=O)NC2CC(F)(F)C2)Cc2c(C(N)=O)c(-c3ccc(F)c(Cl)c3)nn21 [Compound A19, (S)-2-(3-Chloro-4-fluorophenyl)-N^5-(3,3 - difluorocyclobutyl)-7-(2-hydroxypropan-2-yl)-6,7-dihydropyrazolo[1,5-a] pyrazine-3,5(4H)-dicarboxamide] | 10 to 100 | 10 to 100 | – | – |
| CC1(NC(=O)N2CCn3nc(-c4ccc(F)c(Cl)c4)c(C(N)=O)c3C2)CC(O)C1 (stereo not shown) [Compound 260, 2-(3-Chloro-4-fluorophenyl)-N^5-(3-hydroxy-1-methylcyclobutyl)-6,7-dihydropyrazolo[1,5-a]pyrazine-3,5(4H)-dicarboxamide] | 0.01 to 10 | 0.01 to 10 | – | – |
| CC1(NC(=O)N2CCn3nc(-c4ccc(F)c(Cl)c4)c(C(N)=O)c3C2)CC(C(F)F)C1 (single isomer, unassigned) [Compound 259, 2-(3-Chloro-4-fluorophenyl)-N^5-(3-(difluoromethyl)-1-methylcyclobutyl)-6,7-dihydropyrazolo[1,5-a]pyrazine-3,5(4H)-dicarboxamide] | 0.01 to 10 | 0.01 to 10 | – | – |
| CC(C)(C)C1CN(C(=O)NC2CC(F)(F)C2)Cc2c(C(N)=O)c(-c3ccc(F)c(Cl)c3)nn21 (single isomer, unassigned) [Compound A122, 7-(tert-Butyl)-2-(3-chloro-4-fluorophenyl)-N5-(3,3-difluorocyclobutyl)-6,7-dihydropyrazolo[1,5-a]pyrazine-3,5(4H)-dicarboxamide] | 0.01 to 10 | 0.01 to 10 | – | – |
